Assay results from PMC10938783, “A novel pan-PI3K inhibitor KTC1101 synergizes with anti-PD-1 therapy by targeting tumor suppression and immune activation” (Molecular Cancer, 2024).

Test system: B16 cells gene expression
Test: RNA-Seq (DEGs, GSEA, heatmaps) of B16 cells
Conditions: KTC1101 0.2μM, B16 cells, GSEA KEGG

COc1cc(N)cc2c1nc(C(F)F)n2-c1nc(N2CCCOCC2)nc(N2CCOCC2)n1 [KTC1101, 2-(difluoromethyl)-4-methoxy-1-(4-morpholino-6-(1,4-oxazepan-4-yl)-1,3,5-triazin-2-yl)-1H-benzo[d]imidazol-6-amine]
NES, mmu04970 Salivary secretion: 1.144 | NES, mmu04972 Pancreatic secretion: 0.9417 | NES, mmu05017 Spinocerebellar ataxia: -1.093 | NES, mmu05031 Amphetamine addiction: 1.031 | NES, mmu05034 Alcoholism: 0.984 | NES, mmu05100 Bacterial invasion of epithelial cells: 0.6338 | NES, mmu05132 Salmonella infection: -1.08 | NES, mmu05133 Pertussis: 0.6182 | NES, mmu05134 Legionellosis: 1.026 | NES, mmu05135 Yersinia infection: 0.5197 | NES, mmu05145 Toxoplasmosis: 1.047 | NES, mmu05160 Hepatitis C: -0.848 | NES, mmu05162 Measles: 1.0518 | NES, mmu05165 Human papillomavirus infection: 0.8359 | NES, mmu05170 Human immunodeficiency virus 1 infection: 0.8557 | NES, mmu05200 Pathways in cancer: 1.059 | NES, mmu05203 Viral carcinogenesis: 0.855 | NES, mmu05204 Chemical carcinogenesis - DNA adducts: -1.166 | NES, mmu05206 MicroRNAs in cancer: 1.025 | NES, mmu05207 Chemical carcinogenesis - receptor activation: 0.9371 | NES, mmu05210 Colorectal cancer: 0.7382 | NES, mmu05211 Renal cell carcinoma: -0.9675 | NES, mmu05212 Pancreatic cancer: -0.9022 | NES, mmu05213 Endometrial cancer: -1.003 | NES, mmu05214 Glioma: 0.9787 | NES, mmu05216 Thyroid cancer: 0.6447 | NES, mmu05218 Melanoma: 1.185 | NES, mmu05219 Bladder cancer: 0.8356 | NES, mmu05220 Chronic myeloid leukemia: 0.9551 | NES, mmu05223 Non-small cell lung cancer: -0.8178 | NES, mmu05231 Choline metabolism in cancer: 1.119 | NES, mmu05235 PD-L1 expression and PD-1 checkpoint pathway in cancer: 0.9645 | NES, mmu05412 Arrhythmogenic right ventricular cardiomyopathy: 1.0322 | NES, mmu05416 Viral myocarditis: 0.9628 | NES, mmu05417 Lipid and atherosclerosis: 1.128 | enrichmentScore, mmu00071 Fatty acid degradation: 0.2512 | enrichmentScore, mmu00310 Lysine degradation: -0.1985 | enrichmentScore, mmu00380 Tryptophan metabolism: 0.4505 | enrichmentScore, mmu00500 Starch and sucrose metabolism: -0.3977 | enrichmentScore, mmu00510 N-Glycan biosynthesis: -0.1868 | enrichmentScore, mmu00513 Various types of N-glycan biosynthesis: 0.3555 | enrichmentScore, mmu00514 Other types of O-glycan biosynthesis: 0.426 | enrichmentScore, mmu00562 Inositol phosphate metabolism: -0.271 | enrichmentScore, mmu00564 Glycerophospholipid metabolism: -0.1904 | enrichmentScore, mmu00600 Sphingolipid metabolism: -0.2721 | enrichmentScore, mmu00860 Porphyrin metabolism: -0.354 | enrichmentScore, mmu00980 Metabolism of xenobiotics by cytochrome P450: -0.3932 | enrichmentScore, mmu00982 Drug metabolism - cytochrome P450: -0.394 | enrichmentScore, mmu01250 Biosynthesis of nucleotide sugars: -0.3381 | enrichmentScore, mmu01522 Endocrine resistance: 0.2781 | enrichmentScore, mmu01523 Antifolate resistance: -0.26 | enrichmentScore, mmu02010 ABC transporters: -0.2376 | enrichmentScore, mmu03008 Ribosome biogenesis in eukaryotes: 0.1194 | enrichmentScore, mmu03015 mRNA surveillance pathway: -0.1312 | enrichmentScore, mmu03018 RNA degradation: -0.2392 | enrichmentScore, mmu03022 Basal transcription factors: -0.1746 | enrichmentScore, mmu03040 Spliceosome: -0.1926 | enrichmentScore, mmu03060 Protein export: -0.3667 | enrichmentScore, mmu03082 ATP-dependent chromatin remodeling: 0.1455 | enrichmentScore, mmu03083 Polycomb repressive complex: 0.08375 | enrichmentScore, mmu03250 Viral life cycle - HIV-1: -0.1606 | enrichmentScore, mmu03410 Base excision repair: 0.1698 | enrichmentScore, mmu03420 Nucleotide excision repair: -0.1542 | enrichmentScore, mmu03430 Mismatch repair: -0.1664 | enrichmentScore, mmu03460 Fanconi anemia pathway: -0.2915 | enrichmentScore, mmu04014 Ras signaling pathway: -0.2302 | enrichmentScore, mmu04068 FoxO signaling pathway: 0.2292 | enrichmentScore, mmu04070 Phosphatidylinositol signaling system: -0.1821 | enrichmentScore, mmu04071 Sphingolipid signaling pathway: -0.1806 | enrichmentScore, mmu04115 p53 signaling pathway: 0.2436 | enrichmentScore, mmu04120 Ubiquitin mediated proteolysis: -0.1841 | enrichmentScore, mmu04130 SNARE interactions in vesicular transport: -0.1753 | enrichmentScore, mmu04136 Autophagy - other: 0.2123 | enrichmentScore, mmu04137 Mitophagy - animal: -0.2835 | enrichmentScore, mmu04140 Autophagy - animal: -0.2 | enrichmentScore, mmu04144 Endocytosis: 0.1533 | enrichmentScore, mmu04146 Peroxisome: 0.2695 | enrichmentScore, mmu04148 Efferocytosis: 0.2467 | enrichmentScore, mmu04150 mTOR signaling pathway: -0.2361 | enrichmentScore, mmu04152 AMPK signaling pathway: -0.2382 | enrichmentScore, mmu04210 Apoptosis: 0.1949
